Results as given in patent US7972848B2, “Isolation and identification of cross-reactive T cells” (Opexa Therapeutics, Inc., priority 2002, dated 2011).

Columns and labels:
[1] = system: peripheral blood mononuclear cells (PBMC); assay: Estimated precursor frequency of peptide-reactive and cross-reactive T cells in PBMC (proliferation assay); type: cell-based, human; conditions: for estimated frequency of T cells specific for the antigen: in PBMC, primed and tested with the same antigen; for estimated frequency of cross-reactive T cells (reactive to both peptides) primed by the peptide: primed by the labelled peptide
Description: The T cell responses to two synthetic peptides containing an identical core sequence of seven amino acids was measured to estimate the precursor frequency of cross-reactive T cells in PBMC. Two 13-mer peptides corresponding to residues 1-13 of HHV-6 U24 and residues 93-105 of MBP were synthesized and purified to greater than 95%. The MBP93-105 and HHV-6 (U24)1-13 peptides contain the identical core sequence of 7 amino acids with distinct flanking residues (MBP-IVTPRTPPPSQGK and HHV6-MDRPRTPPPSYSE) (SEQ ID NO: 8 and SEQ ID NO: 9, respectively).
Peripheral blood mononuclear cells (PBMC) were seeded at 3×10^5 cells per well in 96-well U-bottomed plates in the presence of the peptides of MBP93-105 or HHV-6 (U24)1-13 at 30 μg/ml or the whole MBP (40 μg/ml), respectively. A total of 24 wells were plated for each antigen. Seven days later, the cultures were tested for the reactivity to both peptides using AIM-V serum free medium (Gibco BRL, Grand Island, N.Y.) alone as a control. To this end, each culture was split into three identical aliquots and tested for the reactivity to MBP and the indicated peptides in duplicate. Two aliquots were tested for reactivity to peptide MBP93-105 and peptide HHV-6 (U24)1-13 at the same concentration of 30 μg/ml, respectively, in the presence of irradiated (6,000 rads) autologous PBMC (10^5 cells per well) as a source of antigen-presenting cells (APC). One aliquot served as a control (medium alone in the presence of APC). The reactivity of the end cultures was measured after 72 hours by proliferation assays as described in Zhang et al., “MHC restricted clonotypic depletion of human myelin basic protein by T cell vaccination,” Science 261:1451-1454 (1993), which is hereby incorporated by reference in its entirety.
According to the reactivity of the resulting T cells, they were categorized as mono-specific T cells or cross-reactive T cells. Mono-specific MBP- or HHV-6 reactive T cells were reactive only to the peptide originally used to prime the cells. Mono-specific T cells were defined as reactive to the given peptide when CPM was greater than 1,000 and exceeded CPM of the control (medium alone) and of the other peptide by at least three-fold. Cross-reactive T cells were reactive to both peptides after being originally primed with only one of the peptides. Cross-reactive T cells were defined as CPM of both peptides exceeded 1,000 and the control CPM by at least three-fold. The frequency of peptide-reactive T cells was then estimated by dividing the number of positive wells by the total number of PBMC seeded in the initial culture.

[2] = system: serum IgG antibodies; assay: Serum antibody reactivity to the peptides by ELISA; type: binding, human; conditions: serum dilutions 1:50 and 1:100; MS patients compared to control subjects
Description: We further addressed whether the increased T cell responses to both peptides of HHV-6 (U24)1-13 and MBP93-105 were consistent with potential B cell sensitization to the peptides in MS patients as compared to healthy controls. To this end, serum specimens freshly obtained from the same MS patients and the control subjects were examined for specific antibody reactivity to the peptides by ELISA.
Antibody titers were determined in serum specimens by ELISA. Briefly, microtiter plates were coated overnight at 4° C. with the peptides at 5 μg/ml in a carbonate buffer (100 mM, pH 9.5). An irrelevant peptide and MBP41-59 were used as reference peptides. Non-specific binding sites were saturated with FBS-PBS for 1 hour and washed subsequently with PBS-T. Serum samples were prepared in serial dilutions (1:50, 1:100, 1:500) with FBS-PBS and 100 μl of each sample were added in duplicate wells. The rest of the procedure is the same as that described above.

[3] = biological target: HLA-DR (DRB1*1501) (Homo sapiens, UniProt P01903+P01911); conditions: cited from earlier work
[4] = system: MBP83-99 specific and MBP93-105 specific T cell clones; assay: Cross-reactivity of T cell responses of MBP83-99 and MBP93-105 specific T cell clones; type: cell-based, human; conditions: four MBP83-99 specific and six MBP93-105 specific T cell clones; data not shown
From the text: Although the T cell recognition of MBP in MS patients is relatively heterogeneous, some regions of MBP have immunodominant properties, such as the 84-102/83-99 region and the 151-170 region of MBP. The immunodominant properties of these regions may be associated with their binding affinity to HLA-DR (DRB 1*1501) preferentially expressed in the MS population. […] Although the 93-105 region of MBP homologues and the 1-13 region of HHV-6 (U24) have an overlap of 4 amino acids (PRTP) (SEQ ID NO:11) with the 83-99 immunodominant region of MBP, the PRTP sequence alone is not sufficient to form an individual T cell epitope and is unlikely to represent the immunodominant T cell epitopes. […] However, the possibility exists that the increased T cell sensitization to MBP in MS patients may be initially triggered by the HHV-6 antigen that shares the sequence homology with MBP93-105 and later spreads to other epitopes of MBP by the mechanism known as epitope spreading.

Substance | cross-reactive T cells primed by the peptide as share of all T cells recognizing peptide MBP93-105 ([1]; MS cohort) | estimated frequency of T cells specific for the antigen ([1]; MS patients) | frequency of T cells initially primed with the whole MBP and reacted to peptide HHV-6 (U24)1-13 ([1]; MS patients, p=0.08 vs control) | frequency of T cells initially primed with the whole MBP and reacted to peptide HHV-6 (U24)1-13 ([1]; control group) | estimated frequency of T cells specific for the antigen ([1]; healthy controls) | estimated frequency of cross-reactive T cells (reactive to both peptides) primed by the peptide ([1]; healthy controls) | serum antibody titers for the peptide [2] | binding affinity to DRB1*1501 / HLA-DR [3] | estimated frequency of cross-reactive T cells (reactive to both peptides) primed by the peptide ([1]; MS patients) | cross-reactivity between T cell responses to MBP83-99 peptide and MBP93-105 peptide [4]
MDRPRTPPPSYSE (listed as Homo sapiens) [HHV-6 (U24)1-13] | greater than 50% | 0.7×10^−6 | 0.33×10^−6 | 0.05×10^−6 | 0.32×10^−6 | 0.17×10^−6 | elevated |  |  | 
84-103: peptide corresponding to the 84-103 region of MBP (DPGSRPHLIRLFSRDAPGRE; UniProt P02686 84-103, looked up, fragment) |  |  |  |  |  |  |  | highest binding affinity |  | 
144-163: peptide corresponding to the 144-163 region of MBP (HGSKYLATASTMDHARHGFL; UniProt P02686 144-163, looked up, fragment) |  |  |  |  |  |  |  | highest binding affinity |  | 
IVTPRTPPPSQGK (listed as Homo sapiens) [MBP93-105] |  | 0.53×10^−6 |  |  | 0.19×10^−6 | 0.09×10^−6 | elevated | does not have high binding affinity | 0.36×10^−6 | no cross-reactivity
myelin basic protein [whole MBP] |  | 0.6×10^−6 |  |  | 0.6×10^−6 |  |  |  |  | 
